From patent US10245275B2 (ViiV HEALTHCARE UK (NO.4) LIMITED, priority 2014, dated 2019)
Read-outs that look alike come from different tables or passages of the source.

What was measured:
[1] = system: HIV-1 NL4-3 gag A364V virus; experiment: microbe, parasite or virus in culture; type: cell-based
Description: (§1) MT-2 cells and 293T cells were obtained from the NIH AIDS Research and Reference Reagent Program. MT-2 cells were propagated in RPMI 1640 media supplemented with 10% heat-inactivated fetal bovine serum, […]. The 293T cells were propagated in DMEM media supplemented with 10% heat-inactivated fetal bovine serum (FBS), 100 units/mL penicillin G and 100 μg/mL streptomycin. […] A recombinant NL4-3 virus, in which a section of the nef gene from NL4-3 was replaced with the Renilla luciferase gene, was used as a reference virus. In addition, residue Gag P373 was converted to P373S. […] Transfections were performed in 293T cells using LipofectAMINE PLUS from Invitrogen (Carlsbad, Calif.), according to manufacturer's instruction. The virus was titered in MT-2 cells using luciferase enzyme activity as a marker. Luciferase was quantitated using the Dual Luciferase kit from Promega (Madison, Wis.), with modifications to the manufacturer's protocol. The diluted Passive Lysis solution was pre-mixed with the re-suspended Luciferase Assay Reagent and the re-suspended Stop & Glo Substrate (2:1:1 ratio). Fifty (50) μL of the mixture was added to each aspirated well on assay plates and luciferase activity was measured immediately on a Wallac TriLux (Perkin-Elmer). Antiviral activities of inhibitors toward the recombinant virus were quantified by measuring luciferase activity in cells infected for 4-5 days with NLRluc recombinants in the presence serial dilutions of the inhibitor.
Both recombinant viruses were used as described above in the HIV cell culture assay for the NL4-3 virus.

[2] = system: WT (wild-type HIV virus; recombinant NL4-3 virus); experiment: microbe, parasite or virus in culture; type: cell-based, HIV-1
Description: as §1
WT refers to wild-type HIV virus. […]

[3] = Human immunodeficiency virus 1, NL43, MT2, read-out: A364V (EC50, uM), Table 1 regular screen, MT-2 cells, luciferase readout
[4] = Human immunodeficiency virus 1, NL43, MT2, read-out: WT (EC50, uM), Table 1 regular screen, MT-2 cells, luciferase readout
[5] = Human immunodeficiency virus 1, NL43, MT2, read-out: A364V (EC50, uM), Table 1 regular screen, class symbol
[6] = Human immunodeficiency virus 1, NL43, MT2, read-out: WT (EC50, uM), Table 1 regular screen, class symbol

Row | SMILES | EC50 [1, 3] | EC50 [2, 4] | EC50 [1, 5] | EC50 [2, 6] | further results
1 | C=C(C)[C@@H]1CC[C@]2(NCC[C@]3(O)CC[C@@](C)(O)CC3)CC[C@]3(C)[C@H](CC[C@@H]4[C@@]5(C)CC=C(C6=CC[C@](CF)(C(=O)O)CC6)C(C)(C)[C@@H]5CC[C@]43C)[C@@H]12 [Example 2-18, (S)-4-((1R,3aS,5aR,5bR,7aR,11aS,11bR,13aR,13bR)-3a-((2-((cis)-1,4-dihydroxy-4-methylcyclohexyl)ethyl)amino)-5a,5b,8,8,11a-pentamethyl-1-(prop-1-en-2-yl)-2,3,3a,4,5,5a,5b,6,7,7a,8,11,11a,11b,12,13,13a,13b-octadecahydro-1H-cyclopenta[a]chrysen-9-yl)-1-(fluoromethyl)cyclohex-3-enecarboxylic acid] | 0.854 µM | 0.00165 µM |  |  | 
2 | C=C(C)[C@@H]1CC[C@]2(NCC(=O)O)CC[C@]3(C)[C@H](CC[C@@H]4[C@@]5(C)CC=C(C6=CC[C@](CF)(C(=O)O)CC6)C(C)(C)[C@@H]5CC[C@]43C)[C@@H]12 [Example 28, (S)-4-((1R,3aS,5aR,5bR,7aR,11aS,11bR,13aR,13bR)-3a-((carboxymethyl)amino)-5a,5b, 8,8,11a-pentamethyl-1-(prop-1-en-2-yl)-2,3,3a,4,5,5a,5b,6,7,7a,8,11,11a,11b,12,13,13a,13b-octadecahydro-1H-cyclopenta[a]chrysen-9-yl)-1-(fluoromethyl)cyclohex-3-enecarboxylic acid] |  |  | > 0.05 µM | > 0.05 µM | 
3 | C=C(C)[C@@H]1CC[C@]2(NCCCN3CCCC3=O)CC[C@]3(C)[C@H](CC[C@@H]4[C@@]5(C)CC=C(C6=CC[C@](CF)(C(=O)O)CC6)C(C)(C)[C@@H]5CC[C@]43C)[C@@H]12 [Example 21, (S)-1-(fluoromethyl)-4-((1R,3aS,5aR,5bR,7aR,11aS,11bR,13aR,13bR)-5a,5b,8,8,11a-pentamethyl-3a-((3-(2-oxopyrrolidin-1-yl)propyl)amino)-1-(prop-1-en-2-yl)-2,3,3a,4,5,5a,5b,6,7,7a,8,11,11a,11b,12,13,13a,13b-octadecahydro-1H-cyclopenta[a]chrysen-9-yl)cyclohex-3-enecarboxylic acid] |  |  | > 0.05 µM | < 0.05 µM | 
4 | C=C(C)[C@@H]1CC[C@]2(NCC(=O)N3CCCS(=O)(=O)CC3)CC[C@]3(C)[C@H](CC[C@@H]4[C@@]5(C)CC=C(C6=CC[C@](CF)(C(=O)O)CC6)C(C)(C)[C@@H]5CC[C@]43C)[C@@H]12 [Example 34, (S)-4-((1R,3aS,5aR,5bR,7aR,11aS,11bR,13aR,13bR)-3a-((2-(1,1-dioxido-1,4-thiazepan-4-yl)-2-oxoethyl)amino)-5a,5b, 8,8,11a-pentamethyl-1-(prop-1-en-2-yl)-2,3,3a,4,5,5a,5b,6,7,7a,8,11,11a,11b,12,13,13a,13b-octadecahydro-1H-cyclopenta[a]chrysen-9-yl)-1-(fluoromethyl)cyclohex-3-enecarboxylic acid] |  |  | < 0.05 µM | < 0.05 µM | 
5 | C=C(C)[C@@H]1CC[C@]2(NCCN3CCNC3=O)CC[C@]3(C)[C@H](CC[C@@H]4[C@@]5(C)CC=C(C6=CC[C@](CF)(C(=O)O)CC6)C(C)(C)[C@@H]5CC[C@]43C)[C@@H]12 [Example 2-25, (S)-1-(fluoromethyl)-4-((1R,3aS,5aR,5bR,7aR,11aS,11bR,13aR,13bR)-5a,5b, 8,8,11a-pentamethyl-3a-((2-(2-oxoimidazolidin-1-yl)ethyl)amino)-1-(prop-1-en-2-yl)-2,3,3a,4,5,5a,5b,6,7,7a,8,11,11a,11b,12,13,13a,13b-octadecahydro-1H-cyclopenta[a]chrysen-9-yl)cyclohex-3-enecarboxylic acid] |  |  | > 0.05 µM | < 0.05 µM | 
6 | C=C(C)[C@@H]1CC[C@]2(NC(CN)C(F)(F)F)CC[C@]3(C)[C@H](CC[C@@H]4[C@@]5(C)CC=C(C6=CC[C@](CF)(C(=O)O)CC6)C(C)(C)[C@@H]5CC[C@]43C)[C@@H]12 (single isomer, unassigned) [Example 40] |  |  |  |  | EC50 ([1]; read-out: A364V (EC50), Table 1 regular screen, MT-2 cells, luciferase readout): 3 µM; EC50 ([2]; read-out: WT (EC50), Table 1 regular screen, MT-2 cells, luciferase readout): 0.0687 µM
7 | C=C(C)[C@@H]1CC[C@]2(NCCN3CC(C)S(=O)(=O)C(C)C3)CC[C@]3(C)[C@H](CC[C@@H]4[C@@]5(C)CC=C(C6=CC[C@@](CF)(C(=O)O)CC6)C(C)(C)[C@@H]5CC[C@]43C)[C@@H]12 (stereo partly drawn) [Example 24, (1R)-4-((1R,3aS,5aR,5bR,7aR,11aS,11bR,13aR,13bR)-3a-((2-(2,6-dimethyl-1,1-dioxidothiomorpholino)ethyl)amino)-5a,5b,8,8,11a-pentamethyl-1-(prop-1-en-2-yl)-2,3,3a,4,5,5a,5b,6,7,7a,8,11,11a,11b,12,13,13a,13b-octadecahydro-1H-cyclopenta[a]chrysen-9-yl)-1-(fluoromethyl)cyclohex-3-enecarboxylic acid] |  |  | > 0.05 µM | < 0.05 µM | 
8 | C=C(C)[C@@H]1CC[C@]2(NCC(=O)N3C[C@@H]4C[C@H]3CS4(=O)=O)CC[C@]3(C)[C@H](CC[C@@H]4[C@@]5(C)CC=C(C6=CC[C@](CF)(C(=O)O)CC6)C(C)(C)[C@@H]5CC[C@]43C)[C@@H]12 [Example 37, (S)-4-((1R,3aS,5aR,5bR,7aR,11aS,11bR,13aR,13bR)-3a-((2-((1S,4S)-2,2-dioxido-2-thia-5-azabicyclo[2.2.1]heptan-5-yl)-2-oxoethyl)amino)-5a,5b,8,8,11a-pentamethyl-1-(prop-1-en-2-yl)-2,3,3a,4,5,5a,5b,6,7,7a,8,11,11a,11 b,12,13,13a,13b-octadecahydro-1H-cyclopenta[a]chrysen-9-yl)-1-(fluoromethyl)cyclohex-3-enecarboxylic acid] |  |  | > 0.05 µM | < 0.05 µM | 
9 | C=C(C)[C@@H]1CC[C@]2(NCCC3(O)CCN(C(C)=O)CC3)CC[C@]3(C)[C@H](CC[C@@H]4[C@@]5(C)CC=C(C6=CC[C@](CF)(C(=O)O)CC6)C(C)(C)[C@@H]5CC[C@]43C)[C@@H]12 [Example 2-15, (S)-4-((1R,3aS,5aR,5bR,7aR,11aS,11bR,13aR,13bR)-3a-((2-(1-acetyl-4-hydroxypiperidin-4-yl)ethyl)amino)-5a,5b, 8,8,11a-pentamethyl-1-(prop-1-en-2-yl)-2,3,3a,4,5,5a,5b,6,7,7a,8,11,11a,11b,12,13,13a,13b-octadecahydro-1H-cyclopenta[a]chrysen-9-yl)-1-(fluoromethyl)cyclohex-3-enecarboxylic acid] | 0.151 µM | 0.00173 µM |  |  | 
10 | C=C(C)[C@@H]1CC[C@]2(NCC[C@]3(O)CC[C@H](S(C)(=O)=O)CC3)CC[C@]3(C)[C@H](CC[C@@H]4[C@@]5(C)CC=C(C6=CC[C@](CF)(C(=O)O)CC6)C(C)(C)[C@@H]5CC[C@]43C)[C@@H]12 [Example 2-21, (S)-1-(fluoromethyl)-4-((1R,3aS,5aR,5bR,7aR,11aS,11bR,13aR,13bR)-3a-((2-((trans)-1-hydroxy-4-(methylsulfonyl)cyclohexyl)ethyl)amino)-5a,5b, 8,8,11a-pentamethyl-1-(prop-1-en-2-yl)-2,3,3a,4,5,5a,5b,6,7,7a,8,11,11a,11b,12,13,13a,13b-octadecahydro-1H-cyclopenta[a]chrysen-9-yl)cyclohex-3-enecarboxylic acid] |  |  | > 0.05 µM | < 0.05 µM | 
11 | C=C(C)[C@@H]1CC[C@]2(NCC(O)CN3CCS(=O)(=O)CC3)CC[C@]3(C)[C@H](CC[C@@H]4[C@@]5(C)CC=C(C6=CC[C@](CF)(C(=O)O)CC6)C(C)(C)[C@@H]5CC[C@]43C)[C@@H]12 (stereo partly drawn) [Example 2-8, (1S)-4-((1R,3aS,5aR,5bR,7aR,11aS,11bR,13aR,13bR)-3a-((3-(1,1-dioxidothiomorpholino)-2-hydroxypropyl)amino)-5a,5b, 8,8,11a-pentamethyl-1-(prop-1-en-2-yl)-2,3,3a,4,5,5a,5b,6,7,7a,8,11,11a,11b,12,13,13a,13b-octadecahydro-1H-cyclopenta[a]chrysen-9-yl)-1-(fluoromethyl)cyclohex-3-enecarboxylic acid] | 1.91 µM | 0.00233 µM |  |  | 
12 | C=C(C)[C@@H]1CC[C@]2(NCCN3CCOC3=O)CC[C@]3(C)[C@H](CC[C@@H]4[C@@]5(C)CC=C(C6=CC[C@](CF)(C(=O)O)CC6)C(C)(C)[C@@H]5CC[C@]43C)[C@@H]12 [Example 2-24, (S)-1-(fluoromethyl)-4-((1R,3aS,5aR,5bR,7aR,11aS,11bR,13aR,13bR)-5a,5b,8,8,11a-pentamethyl-3a-((2-(2-oxooxazolidin-3-yl)ethyl)amino)-1-(prop-1-en-2-yl)-2,3,3a,4,5,5a,5b,6,7,7a,8,11,11a,11b,12,13,13a,13b-octadecahydro-1H-cyclopenta[a]chrysen-9-yl)cyclohex-3-enecarboxylic acid] | 0.932 µM | 0.0053 µM |  |  | 
